Measured values as given in US9725449B2, “Tricyclic compounds as anticancer agents” (BRISTOL-MYERS SQUIBB COMPANY, priority 2015, dated 2017).

What follows are molecules tested against BRD4 (Homo sapiens, UniProt O60885) (assay: Time resolved fluorescence resonance energy transfer (TR-FRET) binding assay, bromodomain BRD4). Details: one of the FRET assays described; read-out: FRET BRD4 IC50.

Row | Compound | IC50
1 | CCCC(c1ccccc1)n1c2cc(-c3c(C)nnn3C)ncc2c2ncc(C(C)(C)O)cc21 (stereo not drawn) [Example 372] | < 1500 nM
2 | CC(=O)c1cnc2c3ccc(-c4c(C)nnn4C)nc3n([C@@H](c3ccccc3)C3CCOCC3)c2c1 [Example 377, 1-[11-(Dimethyl-1H-1,2,3-triazol-5-yl)-8-[(R)-oxan-4-yl(phenyl)methyl]-3,8,10-triazatricyclo[7.4.0.0^2,^7]trideca-1(9),2(7),3,5,10,12-hexaen-5-yl]ethan-1-one] | < 10 nM
3 | Cc1nnn(C)c1-c1ccc2c3ncc(C(C)(C)O)cc3n([C@@H](c3ccccc3)C3CCOCC3)c2n1 [Example 378, 2-[11-(Dimethyl-1H-1,2,3-triazol-5-yl)-8-[(R)-oxan-4-yl(phenyl)methyl]-3,8,10-triazatricyclo[7.4.0.0^2,^7]trideca-1(9),2(7),3,5,10,12-hexaen-5-yl]propan-2-ol] | < 10 nM
4 | CC(=O)c1cnc2c3ccc(-c4c(C)nnn4C)nc3n([C@H](c3ccccc3)C3CCOCC3)c2c1 [Example 379] | < 1 nM
5 | Cc1nnn(C)c1-c1ccc2c3ncc(C(C)(C)O)cc3n([C@H](c3ccccc3)C3CCOCC3)c2n1 [Example 380] | < 10 nM
6 | Cc1nnn(C)c1-c1ccc2c3ncc(N4CCS(=O)(=O)CC4)cc3n([C@H](c3ccccc3)C3CCOCC3)c2n1 [Example 381, 4-[11-(Dimethyl-1H-1,2,3-triazol-5-yl)-8-[(S)-oxan-4-yl(phenyl)methyl]-3,8,10-triazatricyclo[7.4.0.0^2,^7]trideca-1(9),2(7),3,5,10,12-hexaen-5-yl]-1λ^6,4-thiomorpholine-1,1-dione] | < 10 nM
